In patent US10584128B2, “Bicyclic dihydropyrimidine-carboxamide derivatives as Rho-Kinase inhibitors” (CHIESI FARMACEUTICI S.p.A., priority 2016, dated 2020):

Experiments:
[1] = target: Rho kinase 2 (Homo sapiens, UniProt O75116); experiment: In vitro Rho kinase inhibitory activity assay (ADP-Glo kit, Myelin Basic Protein substrate); format: biochemical; details: 10 μM ATP, 25° C., read-out: ROCK2 inhibitory activity (Ki, range of activity)
In short: (§1)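 ADP-Glo luminescence read-out. Enzyme (ROCK1 or ROCK2) + compound 30 min, then 10 μM ATP final, 1 h, 25 °C; 2.5 μM MBP peptide substrate, Tris pH7.5/MgCl2/BSA/DTT buffer, 1% DMSO. IC50 from variable-slope fit (0–100% fixed); Ki via Cheng-Prusoff.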

[2] = target: Rho kinase 1 (Homo sapiens, UniProt Q13464); experiment: as above; format: biochemical; details: 10 μM ATP, 25° C., read-out: ROCK1 inhibitory activity (Ki, range of activity)
Rho kinase 1, sequence (Q13464 whole entry): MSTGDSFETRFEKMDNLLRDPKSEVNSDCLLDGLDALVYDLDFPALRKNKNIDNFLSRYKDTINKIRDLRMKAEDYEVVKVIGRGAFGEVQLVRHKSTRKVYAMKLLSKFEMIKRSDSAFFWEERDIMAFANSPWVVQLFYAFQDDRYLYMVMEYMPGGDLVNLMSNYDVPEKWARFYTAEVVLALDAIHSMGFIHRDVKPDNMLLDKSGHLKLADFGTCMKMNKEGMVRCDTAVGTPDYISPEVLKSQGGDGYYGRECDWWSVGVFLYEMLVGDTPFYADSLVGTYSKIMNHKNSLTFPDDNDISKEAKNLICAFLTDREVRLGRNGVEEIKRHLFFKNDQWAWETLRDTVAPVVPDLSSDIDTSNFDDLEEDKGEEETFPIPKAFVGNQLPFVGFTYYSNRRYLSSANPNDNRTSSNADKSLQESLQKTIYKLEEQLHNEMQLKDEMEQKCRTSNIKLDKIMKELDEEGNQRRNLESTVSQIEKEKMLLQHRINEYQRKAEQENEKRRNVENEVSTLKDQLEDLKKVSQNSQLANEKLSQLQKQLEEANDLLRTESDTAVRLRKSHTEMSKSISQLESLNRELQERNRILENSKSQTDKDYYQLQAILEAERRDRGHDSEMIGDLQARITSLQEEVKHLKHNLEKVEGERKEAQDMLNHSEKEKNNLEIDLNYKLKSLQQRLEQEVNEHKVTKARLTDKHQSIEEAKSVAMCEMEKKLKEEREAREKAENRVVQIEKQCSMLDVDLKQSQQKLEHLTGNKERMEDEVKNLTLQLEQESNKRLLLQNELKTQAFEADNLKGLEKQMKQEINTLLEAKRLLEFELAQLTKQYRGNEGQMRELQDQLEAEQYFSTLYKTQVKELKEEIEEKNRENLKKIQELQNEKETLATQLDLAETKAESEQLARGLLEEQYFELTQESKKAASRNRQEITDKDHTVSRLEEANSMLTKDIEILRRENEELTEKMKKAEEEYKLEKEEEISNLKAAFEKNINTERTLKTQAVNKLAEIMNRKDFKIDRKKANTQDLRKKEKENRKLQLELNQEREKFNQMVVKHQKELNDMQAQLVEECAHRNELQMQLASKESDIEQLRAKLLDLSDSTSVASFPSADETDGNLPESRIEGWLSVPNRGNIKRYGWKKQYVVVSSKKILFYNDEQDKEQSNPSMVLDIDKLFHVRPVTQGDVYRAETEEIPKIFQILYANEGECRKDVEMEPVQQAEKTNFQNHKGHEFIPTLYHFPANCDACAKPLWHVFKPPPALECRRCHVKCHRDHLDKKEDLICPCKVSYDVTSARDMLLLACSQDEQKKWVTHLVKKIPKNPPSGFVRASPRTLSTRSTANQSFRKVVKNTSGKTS
In short: as §1

Rho kinase 2, sequence (O75116 whole entry): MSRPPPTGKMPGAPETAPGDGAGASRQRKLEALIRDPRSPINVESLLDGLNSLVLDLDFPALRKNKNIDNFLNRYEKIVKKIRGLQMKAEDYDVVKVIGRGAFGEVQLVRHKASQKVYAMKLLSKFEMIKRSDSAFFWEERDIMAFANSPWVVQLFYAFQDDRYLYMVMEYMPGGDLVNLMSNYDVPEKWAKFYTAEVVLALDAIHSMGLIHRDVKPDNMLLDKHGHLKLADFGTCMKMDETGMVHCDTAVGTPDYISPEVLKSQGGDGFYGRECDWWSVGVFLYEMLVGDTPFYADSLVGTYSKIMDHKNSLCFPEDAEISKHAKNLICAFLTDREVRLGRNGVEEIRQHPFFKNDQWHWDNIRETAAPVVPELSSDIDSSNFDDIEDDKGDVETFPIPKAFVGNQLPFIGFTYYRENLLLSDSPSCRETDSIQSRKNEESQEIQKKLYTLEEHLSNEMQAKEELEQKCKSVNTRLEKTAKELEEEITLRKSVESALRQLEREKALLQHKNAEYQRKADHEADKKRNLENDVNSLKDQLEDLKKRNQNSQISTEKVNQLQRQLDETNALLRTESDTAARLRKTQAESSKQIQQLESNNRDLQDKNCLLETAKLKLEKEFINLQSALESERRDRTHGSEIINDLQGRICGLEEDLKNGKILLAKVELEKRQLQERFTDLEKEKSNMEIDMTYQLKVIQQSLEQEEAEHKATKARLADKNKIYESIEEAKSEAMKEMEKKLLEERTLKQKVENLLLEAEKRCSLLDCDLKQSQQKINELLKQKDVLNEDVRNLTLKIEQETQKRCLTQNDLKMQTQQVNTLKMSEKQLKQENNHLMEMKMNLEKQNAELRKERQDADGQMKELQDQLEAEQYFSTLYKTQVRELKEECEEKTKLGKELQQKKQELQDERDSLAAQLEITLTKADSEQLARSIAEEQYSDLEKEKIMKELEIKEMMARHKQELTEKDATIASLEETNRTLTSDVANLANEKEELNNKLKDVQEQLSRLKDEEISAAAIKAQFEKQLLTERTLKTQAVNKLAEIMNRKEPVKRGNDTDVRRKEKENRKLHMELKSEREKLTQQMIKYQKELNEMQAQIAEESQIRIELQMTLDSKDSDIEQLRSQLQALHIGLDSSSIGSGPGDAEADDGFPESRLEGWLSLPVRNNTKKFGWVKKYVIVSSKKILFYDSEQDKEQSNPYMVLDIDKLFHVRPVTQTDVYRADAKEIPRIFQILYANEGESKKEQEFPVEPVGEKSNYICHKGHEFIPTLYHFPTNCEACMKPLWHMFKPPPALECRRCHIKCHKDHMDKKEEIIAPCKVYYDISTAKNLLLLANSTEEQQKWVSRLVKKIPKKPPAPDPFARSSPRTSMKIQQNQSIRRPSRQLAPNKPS

Row | Ki [1] | Ki [2] | SMILES
1 | < 0.05 µM | < 0.05 µM | COCCN(C)Cc1cc2n(n1)C(c1ccc(C(F)(F)F)c(F)c1)C(C(=O)Nc1ccc3cnccc3c1)=C(C)N2 (stereo not drawn) [Example 98, 7-(3-fluoro-4-(trifluoromethyl)phenyl)-N-(isoquinolin-6-yl)-2-(((2-methoxyethyl)(methyl)amino)methyl)-5-methyl-4,7-dihydropyrazolo[1,5-a]pyrimidine-6-carboxamide]
2 | < 0.05 µM | < 0.05 µM | COC1CCN(Cc2cc3n(n2)C(c2ccc(C(F)(F)F)c(F)c2)C(C(=O)Nc2ccc4cnccc4c2)=C(C)N3)CC1 (stereo not drawn) [Example 99, 7-(3-fluoro-4-(trifluoromethyl)phenyl)-N-(isoquinolin-6-yl)-2-((4-methoxypiperidin-1-yl)methyl)-5-methyl-4,7-dihydropyrazolo[1,5-a]pyrimidine-6-carboxamide]
3 | < 0.05 µM | < 0.05 µM | COC1CN(Cc2cc3n(n2)C(c2ccc(C(F)(F)F)c(F)c2)C(C(=O)Nc2ccc4cnccc4c2)=C(C)N3)C1 (stereo not drawn) [Example 100, 7-(3-fluoro-4-(trifluoromethyl)phenyl)-N-(isoquinolin-6-yl)-2-((3-methoxyazetidin-1-yl)methyl)-5-methyl-4,7-dihydropyrazolo[1,5-a]pyrimidine-6-carboxamide]
4 | < 0.05 µM | < 0.05 µM | COCC1CN(Cc2cc3n(n2)C(c2ccc(C(F)(F)F)c(F)c2)C(C(=O)Nc2ccc4cnccc4c2)=C(C)N3)C1 (stereo not drawn) [Example 101, 7-(3-fluoro-4-(trifluoromethyl)phenyl)-N-(isoquinolin-6-yl)-2-((3-(methoxymethyl)azetidin-1-yl)methyl)-5-methyl-4,7-dihydropyrazolo[1,5-a]pyrimidine-6-carboxamide]
5 | < 0.05 µM | < 0.05 µM | CC1=C(C(=O)Nc2ccc3cnccc3c2)C(c2ccc(C(F)(F)F)c(F)c2)n2nc(CN3CCCC3)cc2N1 (stereo not drawn) [Example 102, 7-(3-fluoro-4-(trifluoromethyl)phenyl)-N-(isoquinolin-6-yl)-5-methyl-2-(pyrrolidin-1-ylmethyl)-4,7-dihydropyrazolo[1,5-a]pyrimidine-6-carboxamide]
6 | < 0.05 µM | < 0.05 µM | CC1=C(C(=O)Nc2ccc3cnccc3c2)C(c2ccc(C(F)(F)F)c(F)c2)n2nc(CN3CCC4(CCN(C)CC4)C3)cc2N1 (stereo not drawn) [Example 103, 7-(3-fluoro-4-(trifluoromethyl)phenyl)-N-(isoquinolin-6-yl)-5-methyl-2-((8-methyl-2,8-diazaspiro[4.5]decan-2-yl)methyl)-4,7-dihydropyrazolo[1,5-a]pyrimidine-6-carboxamide]
7 | < 0.05 µM | < 0.05 µM | CC1=C(C(=O)Nc2ccc3cnccc3c2)C(c2ccc(C(F)(F)F)c(F)c2)n2nc(CN3CCC(N4CCCC4)CC3)cc2N1 (stereo not drawn) [Example 105, 7-(3-fluoro-4-(trifluoromethyl)phenyl)-N-(isoquinolin-6-yl)-5-methyl-2-((4-(pyrrolidin-1-yl)piperidin-1-yl)methyl)-4,7-dihydropyrazolo[1,5-a]pyrimidine-6-carboxamide]
8 | < 0.05 µM | < 0.05 µM | CC1=C(C(=O)Nc2ccc3cnccc3c2)C(c2ccc(C(F)(F)F)c(F)c2)n2nc(CN3CC(CN(C)C)C3)cc2N1 (stereo not drawn) [Example 106, 2-((3-((dimethylamino)methyl)azetidin-1-yl)methyl)-7-(3-fluoro-4-(trifluoromethyl)phenyl)-N-(isoquinolin-6-yl)-5-methyl-4,7-dihydropyrazolo[1,5-a]pyrimidine-6-carboxamide]
9 | < 0.05 µM | < 0.05 µM | CC1=C(C(=O)Nc2ccc3[nH]ncc3c2)C(c2ccc(C(F)(F)F)cc2)n2nc(CN3CCOCC3)cc2N1 (stereo not drawn) [Example 107, N-(1H-indazol-5-yl)-5-methyl-2-(morpholinomethyl)-7-(4-(trifluoromethyl)phenyl)-4,7-dihydropyrazolo[1,5-a]pyrimidine-6-carboxamide]
10 | < 0.05 µM | < 0.05 µM | CC1=C(C(=O)Nc2ccc3cnccc3c2)C(c2ccc(C(F)(F)F)c(F)c2)n2nc(CN3CCS(=O)(=O)CC3)cc2N1 (stereo not drawn) [Example 108, 2-((1,1-Dioxidothiomorpholino)methyl)-7-(3-fluoro-4-(trifluoromethyl)phenyl)-N-(isoquinolin-6-yl)-5-methyl-4,7-dihydropyrazolo[1,5-a]pyrimidine-6-carboxamide]
11 | < 0.05 µM | < 0.05 µM | CC(=O)N1CCN(Cc2cc3n(n2)C(c2ccc(C(F)(F)F)c(F)c2)C(C(=O)Nc2ccc4cnccc4c2)=C(C)N3)CC1 (stereo not drawn) [Example 109, 2-((4-acetylpiperazin-1-yl)methyl)-7-(3-fluoro-4-(trifluoromethyl)phenyl)-N-(isoquinolin-6-yl)-5-methyl-4,7-dihydropyrazolo[1,5-a]pyrimidine-6-carboxamide]
12 | < 0.05 µM | < 0.05 µM | CC1=C(C(=O)Nc2ccc3[nH]ncc3c2)C(c2ccc(C(F)(F)F)cc2)n2nc(CN)cc2N1 (stereo not drawn) [Example 111, 2-(aminomethyl)-N-(1H-indazol-5-yl)-5-methyl-7-(4-(trifluoromethyl)phenyl)-4,7-dihydropyrazolo[1,5-a]pyrimidine-6-carboxamide]
13 | < 0.05 µM | < 0.05 µM | CC1=C(C(=O)Nc2ccc3cnccc3c2)C(c2ccc(C(F)(F)F)c(F)c2)n2nc(CN)cc2N1 (stereo not drawn) [Example 112, 2-(aminomethyl)-7-(3-fluoro-4-(trifluoromethyl)phenyl)-N-(isoquinolin-6-yl)-5-methyl-4,7-dihydropyrazolo[1,5-a]pyrimidine-6-carboxamide]
14 | < 0.05 µM | < 0.05 µM | CCOC(=O)c1cc2n(n1)C(c1ccc(C(F)(F)F)c(F)c1)C(C(=O)Nc1ccc3cnccc3n1)=C(C)N2 (stereo not drawn) [Example 113, ethyl 6-((1,6-naphthyridin-2-yl)carbamoyl)-7-(3-fluoro-4-(trifluoromethyl)phenyl)-5-methyl-4,7-dihydropyrazolo[1,5-a]pyrimidine-2-carboxylate]
15 | < 0.05 µM | < 0.05 µM | CCOC(=O)c1cc2n(n1)C(c1ccc(C(F)(F)F)c(F)c1)C(C(=O)Nc1ccc3cncc(C)c3c1)=C(C)N2 (stereo not drawn) [Example 114, ethyl 7-(3-fluoro-4-(trifluoromethyl)phenyl)-5-methyl-6-((4-methylisoquinolin-6-yl)carbamoyl)-4,7-dihydropyrazolo[1,5-a]pyrimidine-2-carboxylate]
16 | < 0.05 µM | < 0.05 µM | CCOC(=O)c1cc2n(n1)C(c1ccc(C(F)F)c(F)c1)C(C(=O)Nc1ccc3cnccc3c1)=C(C)N2 (stereo not drawn) [Example 115, ethyl 7-(4-(difluoromethyl)-3-fluorophenyl)-6-(isoquinolin-6-ylcarbamoyl)-5-methyl-4,7-dihydropyrazolo[1,5-a]pyrimidine-2-carboxylate]
17 | < 0.05 µM | < 0.05 µM | CC1=C(C(=O)Nc2ccc3cnccc3c2)C(c2ccc(C(F)(F)F)c(F)c2)n2nc(C3COC3)cc2N1 (stereo not drawn) [Example 116, 7-(3-fluoro-4-(trifluoromethyl)phenyl)-N-(isoquinolin-6-yl)-5-methyl-2-(oxetan-3-yl)-4,7-dihydropyrazolo[1,5-a]pyrimidine-6-carboxamide]
18 | < 0.05 µM | < 0.05 µM | CSc1cc2n(n1)C(c1ccc(C(F)(F)F)c(F)c1)C(C(=O)Nc1ccc3cnccc3c1)=C(C)N2 (stereo not drawn) [Example 117, 7-(3-fluoro-4-(trifluoromethyl)phenyl)-N-(isoquinolin-6-yl)-5-methyl-2-(methylthio)-4,7-dihydropyrazolo[1,5-a]pyrimidine-6-carboxamide]
19 | < 0.05 µM | < 0.05 µM | O=C(Nc1ccc2cnccc2c1)C1=C(C2CC2)Nc2cc(CO)nn2C1c1ccc(C(F)(F)F)c(F)c1 (stereo not drawn) [Example 118, 5-cyclopropyl-7-(3-fluoro-4-(trifluoromethyl)phenyl)-2-(hydroxymethyl)-N-(isoquinolin-6-yl)-4,7-dihydropyrazolo[1,5-a]pyrimidine-6-carboxamide]
20 | < 0.05 µM | < 0.05 µM | COCC1=C(C(=O)Nc2ccc3cnccc3c2)C(c2ccc(C(F)(F)F)c(F)c2)n2nc(CO)cc2N1 (stereo not drawn) [Example 119, 7-(3-fluoro-4-(trifluoromethyl)phenyl)-2-(hydroxymethyl)-N-(isoquinolin-6-yl)-5-(methoxymethyl)-4,7-dihydropyrazolo[1,5-a]pyrimidine-6-carboxamide]
21 | < 0.05 µM | < 0.05 µM | CC1=C(C(=O)Nc2ccc3cnccc3c2)C(C2CCC(C(F)(F)F)CC2)n2nc(CN(C)C)cc2N1 (stereo not drawn) [Example 120, 2-((dimethylamino)methyl)-N-(isoquinolin-6-yl)-5-methyl-7-(4-(trifluoromethyl)cyclohexyl)-4,7-dihydropyrazolo[1,5-a]pyrimidine-6-carboxamide]
22 | < 0.05 µM | < 0.05 µM | CC1=C(C(=O)Nc2ccc3cnccc3c2)C(c2ccc(C)c(F)c2F)n2nc(CN(C)C)cc2N1 (stereo not drawn) [Example 121, 7-(2,3-difluoro-4-methylphenyl)-2-((dimethylamino)methyl)-N-(isoquinolin-6-yl)-5-methyl-4,7-dihydropyrazolo[1,5-a]pyrimidine-6-carboxamide]
23 | < 0.05 µM | < 0.05 µM | CC1=C(C(=O)Nc2ccc3cnccc3c2)C(c2ccc(C(F)(F)F)c(F)c2F)n2nc(CN(C)C)cc2N1 (stereo not drawn) [Example 122, 7-(2,3-difluoro-4-(trifluoromethyl)phenyl)-2-((dimethylamino)methyl)-N-(isoquinolin-6-yl)-5-methyl-4,7-dihydropyrazolo[1,5-a]pyrimidine-6-carboxamide]
24 | < 0.05 µM | < 0.05 µM | CC1=C(C(=O)Nc2ccc3cnccc3n2)C(c2ccc(C(F)(F)F)c(F)c2)n2nc(CN(C)C)cc2N1 (stereo not drawn) [Example 123, 2-((dimethylamino)methyl)-7-(3-fluoro-4-(trifluoromethyl)phenyl)-5-methyl-N-(1,6-naphthyridin-2-yl)-4,7-dihydropyrazolo[1,5-a]pyrimidine-6-carboxamide]
